ChEMBL document CHEMBL4266035, “Insulin Mimetic Activity of 3,4- Seco and Hexanordammarane Triterpenoids Isolated from Gynostemma longipes” (J Nat Prod, 2018)
Active and inactive are the calls of the source. The rule behind the calls is not given here.

Key:
C2C12 [1] = assay: Cytotoxicity against mouse C2C12 cells at 10 uM after 24 hrs by MTT assay; assay type: cell-based; details: c2c12, 24 h
3T3-L1 [2] = assay: Cytotoxicity against mouse 3T3L1 cells at 10 to 30 uM after 24 hrs by MTT assay; assay type: cell-based; details: 3t3-l1, 24 h
C2C12 [3] = assay: Cytotoxicity against mouse C2C12 cells at 40 uM after 24 hrs by MTT assay; assay type: cell-based; details: c2c12, 24 h
3T3-L1 [4] = assay: Cytotoxicity against mouse 3T3L1 cells at 40 uM after 24 hrs by MTT assay; assay type: cell-based; details: 3t3-l1, 24 h
3T3-L1 [5] = assay: Induction of 2-NBDG uptake in differentiated mouse 3T3L1 cells at 10 uM after 1 hr by fluorescence microscopic method; assay type: functional, cell-based
C2C12 [6] = assay: Induction of AMPKalpha phosphorylation at Thr-172 residue in mouse C2C12 cells at 10 uM after 1 hr by Western blot analysis; assay type: cell-based
3T3-L1 [7] = assay: Induction of 2-NBDG uptake in differentiated mouse 3T3L1 cells at 20 uM after 1 hr by fluorescence microscopic method; assay type: functional, cell-based
C2C12 [8] = assay: Induction of AMPKalpha phosphorylation at Thr-172 residue in mouse C2C12 cells at 20 uM after 1 hr by Western blot analysis; assay type: cell-based
C2C12 [9] = assay: Activation of AMPKalpha in mouse C2C12 cells assessed as upregulation of ACC-phosphorylation at 20 uM after 1 hr by Western blot analysis; assay type: cell-based
Mus musculus = species on record: Mus musculus; assay: Activation of AMPK signaling pathway in mouse 3T3L1 cells assessed as induction of GLUT4 translocation at 20 uM after 24 hrs by Western blot analysis; assay type: cell-based
3T3-L1 [10] = assay: Induction of 2-NBDG uptake in differentiated mouse 3T3L1 cells after 1 hr by fluorescence microscopic method; assay type: functional, cell-based

Row | Structure (SMILES) | Activity (C2C12 [1]) | Activity (3T3-L1 [2]) | Activity (C2C12 [3]) | Activity (3T3-L1 [4]) | Activity (3T3-L1 [5]) | Activity (C2C12 [6]) | Activity (3T3-L1 [7]) | Activity (C2C12 [8]) | Activity (C2C12 [9]) | Activity (Mus musculus) | Activity (3T3-L1 [10])
1 | CC(C)=CCC[C@](C)(O)[C@H]1CC[C@]2(C)[C@@H]1C(=O)C[C@@H]1[C@@]3(C)CC[C@H](O[C@@H]4O[C@H](CO)[C@@H](O)[C@H](O)[C@H]4O[C@@H]4O[C@@H](C)[C@H](O)[C@@H](O)[C@H]4O)C(C)(C)[C@@H]3CC[C@]12C | Non-Toxic | Non-Toxic | Toxic | Toxic | Active | Active | – | – | – | – | –
2 | C[C@@H]1O[C@@H](OC[C@H]2O[C@@H](O[C@H]3CC[C@]4(C)[C@H]5CC(=O)[C@@H]6[C@@H]([C@@](C)(O)C/C=C/C(C)(C)O)CC[C@@]6(C)[C@]5(C)CC[C@H]4C3(C)C)[C@H](O[C@@H]3O[C@@H](C)[C@H](O)[C@@H](O)[C@H]3O)[C@@H](O[C@@H]3O[C@@H](C)[C@H](O)[C@@H](O)[C@H]3O)[C@H]2O)[C@H](O)[C@H](O)[C@H]1O | – | – | Non-Toxic | Non-Toxic | – | – | Active | inactive | – | – | –
3 | CC(C)=CC(=O)C[C@](C)(O)[C@H]1CC[C@]2(C)[C@@H]1C(=O)C[C@@H]1[C@@](C)(CCC(=O)O)[C@@H](C(C)(C)O)CC[C@]12C | – | – | Non-Toxic | Non-Toxic | – | – | – | Active | Active | Active | Dose-dependent effect
4 | CC(C)=CC(=O)/C=C(/C)[C@H]1CC[C@]2(C)[C@@H]1C(=O)C[C@@H]1[C@@]3(C)CC[C@H](O[C@@H]4O[C@H](CO[C@@H]5O[C@@H](C)[C@H](O)[C@@H](O)[C@H]5O)[C@H](O)[C@H](O[C@@H]5O[C@@H](C)[C@H](O)[C@@H](O)[C@H]5O)[C@H]4O[C@@H]4O[C@@H](C)[C@H](O)[C@@H](O)[C@H]4O)C(C)(C)[C@@H]3CC[C@]12C | – | – | Non-Toxic | Non-Toxic | – | – | Active | inactive | – | – | –
5 | CC(=O)[C@H]1CC[C@]2(C)[C@@H]1C(=O)C[C@@H]1[C@@]3(C)CC[C@H](O[C@@H]4O[C@H](CO)[C@H](O)[C@H](O[C@@H]5O[C@@H](C)[C@H](O)[C@@H](O)[C@H]5O)[C@H]4O[C@@H]4O[C@@H](C)[C@H](O)[C@@H](O)[C@H]4O)C(C)(C)[C@@H]3CC[C@]12C | – | – | Non-Toxic | Non-Toxic | – | – | – | Active | Active | Active | Dose-dependent effect
6 | CC(=O)[C@H]1CC[C@]2(C)[C@@H]1C(=O)C[C@@H]1[C@@](C)(CCC(=O)O)[C@@H](C(C)(C)O)CC[C@]12C | – | – | Non-Toxic | Non-Toxic | – | – | Active | Active | – | – | –
7 | C[C@@H]1O[C@@H](O[C@H]2[C@H](O[C@H]3CC[C@]4(C)[C@H]5CC(=O)[C@@H]6[C@@H]([C@@](C)(O)C/C=C/C(C)(C)O)CC[C@@]6(C)[C@]5(C)CC[C@H]4C3(C)C)O[C@H](CO)[C@H](O)[C@@H]2O[C@@H]2O[C@@H](C)[C@H](O)[C@@H](O)[C@H]2O)[C@H](O)[C@H](O)[C@H]1O | – | – | Non-Toxic | Non-Toxic | – | – | – | Active | – | Active | Dose-dependent effect
8 | CC(=O)[C@H]1CC[C@]2(C)[C@@H]1C(=O)C[C@@H]1[C@@]3(C)CC[C@H](O[C@@H]4O[C@H](CO[C@@H]5O[C@@H](C)[C@H](O)[C@@H](O)[C@H]5O)[C@H](O)[C@H](O[C@@H]5O[C@@H](C)[C@H](O)[C@@H](O)[C@H]5O)[C@H]4O[C@@H]4O[C@@H](C)[C@H](O)[C@@H](O)[C@H]4O)C(C)(C)[C@@H]3CC[C@]12C | – | – | Non-Toxic | Non-Toxic | – | – | Active | Active | – | – | –
9 | C[C@@H]1O[C@@H](OC[C@H]2O[C@@H](O[C@H]3CC[C@]4(C)[C@H]5CC(=O)[C@@H]6[C@@H]([C@@](C)(O)CC(=O)CC(C)(C)O)CC[C@@]6(C)[C@]5(C)CC[C@H]4C3(C)C)[C@H](O[C@@H]3O[C@@H](C)[C@H](O)[C@@H](O)[C@H]3O)[C@@H](O[C@@H]3O[C@@H](C)[C@H](O)[C@@H](O)[C@H]3O)[C@H]2O)[C@H](O)[C@H](O)[C@H]1O | – | – | Non-Toxic | Non-Toxic | – | – | Active | inactive | – | – | –
10 | CC(C)(O)CC(=O)C[C@](C)(O)[C@H]1CC[C@]2(C)[C@@H]1C(=O)C[C@@H]1[C@@](C)(CCC(=O)O)[C@@H](C(C)(C)O)CC[C@]12C | – | – | Non-Toxic | Non-Toxic | – | – | – | Active | Active | Active | Dose-dependent effect
